Assay results as given in article PMC4437985, “Inhibition of a Putative Dihydropyrimidinase from Pseudomonas aeruginosa PAO1 by Flavonoids and Substrates of Cyclic Amidohydrolases” (PLoS ONE, 2015).
“Also recorded” adds a separate entry of the source. Like-named read-outs stand apart in the source and are kept apart here.

Columns and labels:
[1] = biological target: T1, dihydropyrimidinase from P. aeruginosa PAO1 (Pseudomonas aeruginosa, UniProt Q9I676); test: Spectrophotometric enzyme assay: inhibition of dihydropyrimidinase; format: biochemical; settings: for Inhibitory effect on dihydropyrimidinase activity: 5-propyl-hydantoin or dihydrouracil as substrate
Description: (§1) A rapid spectrophotometric assay was used to determine the enzymatic activity according to a previously described protocol for hydantoinase, allantoinase, dihydroorotase, and imidase. Dihydrouracil, 5-propyl-hydantoin, and phthalimide were used as substrates. Unless explicitly stated otherwise, dihydrouracil (2 mM) was used as the substrate in the standard assay of dihydropyrimidinase. Briefly, the decrease in absorbancy at 230, 248, and 298 nm was measured upon hydrolysis of dihydrouracil, 5-propyl-hydantoin, and phthalimide as the substrate at 25°C, respectively. To start the reaction, the purified dihydropyrimidinase (10–70 μg) was added to a 2 mL solution containing the substrate and 100 mM Tris–HCl (pH 8.0). Substrate hydrolysis was monitored with a UV/vis spectrophotometer (Hitachi U 3300, Hitachi High-Technologies, Tokyo, Japan). The extinction coefficient of each substrate was determined experimentally by direct measurement with a spectrophotometer. The extinction coefficients of dihydrouracil, 5-propyl-hydantoin, and phthalimide were 0.683 mM^-1cm^-1 at 230 nm, 0.0538 mM^-1cm^-1 at 248 nm, and 3.12 mM^-1cm^-1 at 298 nm, respectively. The initial rates of change were a function of enzyme concentration within the absorbance range of 0.01–0.18 min^-1. A unit of activity was defined as the amount of enzyme catalyzing the hydrolysis of 1 μmol substrate/min, and the specific activity was expressed in terms of units of activity per milligram of enzyme. The kinetic parameters K m and V max were determined from a non-linear plot by fitting the hydrolyzing rate from individual experiments to the Michaelis–Menten equation (Enzyme Kinetics module of Sigma-Plot; Systat Software, Chicago, IL, USA).

[2] = biological target: T1, dihydropyrimidinase from P. aeruginosa PAO1; test: Substrate specificity / Michaelis-Menten kinetics of dihydropyrimidinase; format: biochemical; settings: for Fold: V max/K m relative to dihydrouracil; for K m / V max / V max/K m: compound as substrate
Description: as §1

[3] = biological target: T1, dihydropyrimidinase from P. aeruginosa PAO1; format: biochemical
[4] = biological target: P. aeruginosa dihydropyrimidinase (Pseudomonas aeruginosa, UniProt Q9I676); test: Fluorescence quenching of wild-type dihydropyrimidinase; format: binding; settings: for Quenching of intrinsic fluorescence / Red shift in emission wavelength: wild-type enzyme; for Quenching of intrinsic fluorescence: 50 μM compound; for Red shift in emission wavelength: λmax from 333.5 nm
Description: (§2) The dissociation constants (K d) of dihydropyrimidinase was determined using the fluorescence quenching method as previously described for allantoinase, dihydroorotase, and DnaB helicase. An aliquot of each compound was added into the solution containing dihydropyrimidinase (0.8 μM), 50 mM HEPES at pH 7.0. The decrease in intrinsic fluorescence of protein was measured at 334.5 nm upon excitation at 279 nm and 25°C with a spectrofluorimeter (Hitachi F-2700; Hitachi High-Technologies, Tokyo, Japan). At least seven data points were used to calculate each K d. Each data point was an average of 2–3 determinants, and the difference of the determinants was within 10%. The K d was obtained by the equation: ΔF = ΔFmax-K d(ΔF/[compound]) (Enzyme Kinetics module of Sigma-Plot; Systat Software, Chicago, IL, USA).

[5] = biological target: N337A mutant of P. aeruginosa dihydropyrimidinase (Pseudomonas aeruginosa, UniProt Q9I676, N337A); test: Fluorescence quenching of the N337A mutant; format: binding, Pseudomonas aeruginosa PAO1; settings: for Red shift in λmax: N337A mutant, from 333.5 nm
Description: The dihydropyrimidinase mutants (H59A, H61A, K150A, Y155A, H183A, H239A, S289A, D316A, and N337A) were generated according to the manufacturer’s protocol (Stratagene, LaJolla, CA). The presence of the mutation was verified by DNA sequencing in each construct.
as §2

[6] = substrate and inhibitor analogs of other cyclic amidohydrolases, read-out: IC50
[7] = metal ion 1 mM added to reaction mixture, enzyme purified without metal supplement, dihydrouracil substrate
[8] = specific activity relative to no metal added, metal ion 1 mM
[9] = 40 μM dihydromyricetin, dihydrouracil substrate
[10] = IC50, 5-propyl-hydantoin as substrate
[11] = IC50, dihydrouracil as substrate

Sequence of P. aeruginosa dihydropyrimidinase (Q9I676 whole entry): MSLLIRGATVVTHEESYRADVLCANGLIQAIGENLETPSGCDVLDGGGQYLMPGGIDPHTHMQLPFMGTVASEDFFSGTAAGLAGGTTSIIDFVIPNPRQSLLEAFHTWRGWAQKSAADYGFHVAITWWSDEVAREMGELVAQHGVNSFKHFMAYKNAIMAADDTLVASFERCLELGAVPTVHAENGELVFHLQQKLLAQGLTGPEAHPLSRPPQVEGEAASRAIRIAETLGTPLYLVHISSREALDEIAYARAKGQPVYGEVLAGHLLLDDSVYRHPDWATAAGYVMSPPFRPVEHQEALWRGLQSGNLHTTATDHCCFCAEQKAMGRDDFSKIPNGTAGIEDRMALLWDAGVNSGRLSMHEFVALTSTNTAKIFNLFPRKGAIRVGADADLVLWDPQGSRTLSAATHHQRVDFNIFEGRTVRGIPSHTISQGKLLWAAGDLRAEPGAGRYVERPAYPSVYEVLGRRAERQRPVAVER
T1 sequence (Q9I676 whole entry): as above
Sequence of N337A mutant of P. aeruginosa dihydropyrimidinase (Q9I676 whole entry N337A): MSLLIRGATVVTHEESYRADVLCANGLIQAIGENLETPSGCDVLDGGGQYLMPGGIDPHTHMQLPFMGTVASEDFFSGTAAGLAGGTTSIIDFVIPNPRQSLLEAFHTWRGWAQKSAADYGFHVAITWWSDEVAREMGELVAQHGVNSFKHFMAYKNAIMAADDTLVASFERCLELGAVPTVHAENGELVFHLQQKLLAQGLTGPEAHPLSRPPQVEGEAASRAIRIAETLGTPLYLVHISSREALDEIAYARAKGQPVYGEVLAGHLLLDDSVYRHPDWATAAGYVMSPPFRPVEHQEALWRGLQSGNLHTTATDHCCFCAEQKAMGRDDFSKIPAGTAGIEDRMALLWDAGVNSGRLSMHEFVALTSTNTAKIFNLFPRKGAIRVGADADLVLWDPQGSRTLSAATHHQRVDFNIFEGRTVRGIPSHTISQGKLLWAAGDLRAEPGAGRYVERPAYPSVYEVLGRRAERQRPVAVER

Nc1nc[nH]n1 [3-amino-1,2,4-triazole]
Concentration that affected enzyme activity [1]: 100 to 750 mM | IC50 range [1]: within the millimolar range | Inhibitory effect on dihydropyrimidinase activity [1]: slightly inhibit

O=C(O)CC1NC(=O)NC1=O (centres unmarked) [5-hydantoin acetic acid]
IC50 range [1]: within the millimolar range | Inhibitory effect on dihydropyrimidinase activity [1]: only slightly inhibit | IC50 [1, 6]: ~50000 µM

CCCC1NC(=O)NC1=O (centres unmarked) [5-propyl-hydantoin]
Catalytic efficiency toward dihydrouracil higher than toward this substrate [2]: 100 fold | Fold [2]: 0.01 | K m [2]: 8100 ± 1500 µM | V max [2]: 1.2 ± 0.1 µmol/mg/min | V max/K m [2]: 0.15

[Ca+2].[Cl-].[Cl-] [CaCl2]
Effect of metal addition on dihydropyrimidinase activity ([3]; 1 mM added to reaction mixture): not useful | Specific activity [3, 7]: 0.82 ± 0.05 µmol/mg/min | Fold [3, 8]: 1.0

[Cl][Cd][Cl] [CdCl2]
Effect of metal addition on dihydropyrimidinase activity ([3]; 1 mM added to reaction mixture): not useful | Specific activity [3, 7]: 0.74 ± 0.04 µmol/mg/min | Fold [3, 8]: 0.9

[Cl-].[Cl-].[Co+2] [CoCl2]
Effect of metal addition on dihydropyrimidinase activity [3]: activated | Fold [3]: 7.1 | Specific activity [3]: 5.80 ± 0.16 µmol/mg/min | Specific activity toward dihydrouracil [3]: 5.9 ± 0.4 µmol/mg/min

[Cl-].[Cl-].[Mg+2] [MgCl2]
Effect of metal addition on dihydropyrimidinase activity ([3]; 1 mM added to reaction mixture): not useful | Specific activity [3, 7]: 0.82 ± 0.05 µmol/mg/min | Fold [3, 8]: 1.0

[Cl][Mn][Cl] [MnCl2]
Effect of metal addition on dihydropyrimidinase activity ([3]; 1 mM added to reaction mixture): activated | Specific activity [3, 7]: 1.72 ± 0.09 µmol/mg/min | Fold [3, 8]: 2.1

[Cl][Ni][Cl] [NiCl2]
Effect of metal addition on dihydropyrimidinase activity ([3]; 1 mM added to reaction mixture): not useful | Specific activity [3, 7]: 0.91 ± 0.06 µmol/mg/min | Fold [3, 8]: 1.1

[Cl-].[Cl-].[Zn+2] [ZnCl2]
Effect of metal addition on dihydropyrimidinase activity ([3]; 1 mM added to reaction mixture): activated | Specific activity [3, 7]: 2.90 ± 0.10 µmol/mg/min | Fold [3, 8]: 3.5

CC(=O)NO [acetohydroxamate]
IC50 range [1]: within the millimolar range | Inhibitory effect on dihydropyrimidinase activity [1]: only slightly inhibit

NC(=O)NC1NC(=O)NC1=O (centres unmarked) [allantoin]
K m [2]: Not hydrolyzed | V max [2]: Not hydrolyzed | IC50 range [1]: within the millimolar range | Inhibitory effect on dihydropyrimidinase activity [1]: slightly inhibit; also recorded: only slightly inhibited

O=C1c2c(O)cc(O)cc2O[C@H](c2cc(O)c(O)c(O)c2)[C@H]1O [dihydromyricetin]
Kd [4]: 22.6 µM | Quenching of intrinsic fluorescence [4]: 89.1% | Red shift in emission wavelength [4]: ~ 25 nm | Kd [5]: 24.1 ± 1.7 µM | Red shift in λmax [5]: ~ 23.5 nm | Inhibition stronger than the substrate analogs [1]: > 3 orders of magnitude | K m in the presence of inhibitor [1, 9]: 1600 ± 200 µM | V max in the presence of inhibitor [1, 9]: 5.4 ± 0.4 µmol/mg/min | Type of inhibition (Lineweaver-Burk plot) ([1]; 40 μM inhibitor, different concentrations of dihydrouracil): competitive inhibitor | Inhibitory effect on dihydropyrimidinase activity [1]: significant inhibitory effect | IC50 [1, 10]: 40 µM | IC50 [1, 11]: 48 µM

O=C1CC(C(=O)O)NC(=O)N1 (centres unmarked) [dihydroorotate]
K m [2]: Not hydrolyzed | V max [2]: Not hydrolyzed | IC50 range [1]: within the millimolar range | Inhibitory effect on dihydropyrimidinase activity [1]: slightly inhibit; also recorded: only slightly inhibited | IC50 [1, 6]: ~30000 µM

O=C1CCNC(=O)N1 [dihydrouracil]
Fold [2]: 1.0 | K m [2]: 700 ± 100 µM | V max [2]: 7.6 ± 0.4 µmol/mg/min | V max/K m [2]: 10.9

O=c1c(O)c(-c2ccc(O)cc2)oc2cc(O)cc(O)c12 [kaempferol]
Inhibitory effect ([1]; 5-propyl-hydantoin as substrate): only slightly inhibited | Inhibitory effect ([1]; dihydrouracil as substrate): significant | IC50 ([1]; dihydrouracil as substrate, read-out: IC50): 50 ± 2 µM

O=c1c(O)c(-c2cc(O)c(O)c(O)c2)oc2cc(O)cc(O)c12 [myricetin]
Kd [4]: 28.8 ± 2.2 µM | Quenching of intrinsic fluorescence [4]: 56.2% | Red shift in emission wavelength [4]: ~ 7 nm | Red shift in λmax [5]: ~ 7.5 nm | Inhibitory effect on dihydropyrimidinase activity [1]: strongly inhibit | IC50 [1, 10]: 63 ± 3 µM | IC50 [1, 11]: 83 ± 3 µM | Inhibitory effect ([1]; dihydrouracil as substrate): significant

O=C(O)c1cc(=O)[nH]c(=O)[nH]1 [orotic acid]
IC50 range [1]: within the millimolar range | Inhibitory effect on dihydropyrimidinase activity [1]: slightly inhibit

O=C1NC(=O)c2ccccc21 [phthalimide]
Catalytic efficiency toward dihydrouracil higher than toward this substrate [2]: fourfold | Fold [2]: 0.25 | K m [2]: 1000 ± 300 µM | V max [2]: 2.7 ± 0.6 µmol/mg/min | V max/K m [2]: 2.7

O=c1c(O)c(-c2ccc(O)c(O)c2)oc2cc(O)cc(O)c12 [quercetin]
Inhibitory effect on dihydropyrimidinase activity [1]: insignificant

myricitrin
Inhibitory effect on dihydropyrimidinase activity [1]: No effect
